From patent publication US11197836B2, “Topical vasoconstrictor preparations and methods for protecting cells during cancer chemotherapy and radiotherapy” (WISCONSIN ALUMNI RESEARCH FOUNDATION, priority 2005, dated 2021)
Entries after “also recorded” stand apart in the source; their conditions may differ. Where a name gives a salt, the structure may show the parent alone. Read-outs that look alike come from different tables or passages of the source.

What was measured:
coat density = settings: ten-day old Sprague-Dawley rats
Experimental: On day 20 of life, coat density on the dorsal back of each animal was visually scored as a percentage of the normal coat density for an untreated 20 day old rat. At 30 μg/gm b.w.

[1] = blood plasma, following intravenous infusion or oral administration; cited from earlier work
rat skin = test: Penetration of topically applied dye into rat skin; assay type: in vivo; settings: applied to rat skin in an alcohol:water solution
Excerpt: It is preferred for certain embodiments of the invention directed to skin applications to optimize ethanol, propylene glycol, and water percentages to enable sufficient delivery of epinephrine, phenylephrine, norepinephrine, or methoxamine to the skin vasculature, to achieve transient, vasculature constriction, and by so-doing, confer protection to the stem cells of the epidermis and hair follicle. The primary skin vasculature is located within the dermis, largely creating a vascular web surrounding the hair follicle bulbs (shown in FIG. 1). Topical drug delivery to this vasculature is primarily achieved by “transfolicular” delivery, i.e., topically-applied alcohol:water solutions travel within the hair shaft channels to the hair follicle bulb, and then diffuse through the stem cells that comprise the hair follicle bulb to access the dermal vasculature surrounding the bulb. For topical solutions to access dermal vasculature, a minimum percentage of alcohol in the topical delivery vehicle is preferred to enable: i) dissolution or softening of sebaceous oil present in human hair shaft channels, and ii) penetration of the oil-stratum corneum matrix.

[2] = test system: radiation-induced or Cytoxan-induced alopecia; settings: neonate rat, day 20 of life
Excerpt: The severity of the alopecia was scored nine days later—on day 20 of life.

[3] = test system: radiation-induced oral mucositis; settings: for Muscositis Severity Score: score 0-17, day 16
Experimental: In an assay based upon Alvarez eta/. […] Additional topical formulation was applied with Q-tip to uniformly cover the everted, interior surface of the cheek pouch. After 20 min, the vehicle-coated, immobilized cheek pouch was taped into position over a 1.5 cm diameter window bored through a 2.5 cm thick lead plate. The sleeping hamster was immobilized on a small shelf on the plate that enabled cheek pouch irradiation through the window.
After irradiation, the cheek pouch was rinsed with water, blotted and reverted. The severity of mucositis in the irradiated cheek pouch was scored 16 days later using the following criteria.

cheek pouch oral mucosa = test: Blanch response of hamster cheek pouch oral mucosa, Example 15; assay type: in vivo, Syrian Golden hamster; settings: 10 mM in 5:1:94 ethanol:HPMC:PBS, after 30 min
Experimental: Hamsters were anesthetized with sodium pentobarbital, the cheek pouch was everted with forceps, rinsed with water and blotted, and immobilized on a 2 cm diameter inert plastic disk using stainless steel clips (see panels in FIG. 11). […] Digital images were recorded.

human skin [4] = settings: for Skin Blanch Response: human arm skin; for blanching of the skin: human skin, over the 180 min observation period
[5] = test system: radiation-induced dermatitis of rat skin; settings: for Radiation Dermatitis Score (% of Irradiated 4.5 cm^2 Area Free of Scab material): rat, 8.7 Gy γ, scored 13 days later
[6] = test system: chemotherapy-induced alopecia; settings: 950 mM topical four times in two hr, 10 day old rat pups, Cytoxan 30 μg/gm b.w. i.p.
[7] = Sustained solubility of norepinephrine tartrate in ethanol:PG:water mixtures, Example 7; assay type: physicochemical; settings: 600 mM
Experimental: Solvent composed of ethanol:propylene glycol (PG):water in the percentages (vol:vol:vol)·specified in FIG. 3 was then added to each vial. Vials were heated as necessary to dissolve norepinephrine by touching vials to a boiling water bath for one second increments and then vortexing until clear. Sealed vials were left at room temperature for 24 hours, and at 4° C. for 24 hours. During the two 24 hour incubations, liquid in each vial was examined using a magnifying glass to identify the formation of any crystalline material. If crystals formed, norepinephrine was noted as “insoluble” at that solvent mixture.

[8] = test system: radiodermatitis of rat skin; test: Radiodermatitis prevention after 27 Gy 6 MeV electron beam irradiation of rat skin, Example 14; assay type: in vivo; settings: 300 mM topical
Experimental: Adult rats ([…]) were clipped to remove the coat covering their dorsal backs. Aliquots (100 μl) of topical drug formulation containing 300 mM norepinephrine were applied once to the backs of the rats, and at set time points afterward, a rectangle (1.5 cm×3 cm) within the topical treatment field received a 27 Gy dose of 6 MeV electrons from a linear accelerator. Animals were anesthetized with 30 μg/gm b.w. sodium pentobarbital prior to irradiation. Following irradiation, rats were returned to cages, and 13 days later the severity of radiodermatitis within the irradiated rectangular field was visually scored and photographed. A “Radiodermatitis Severity Score” between 0 and 100 represents the percentage of the irradiated field that is covered by scab material on day 13 following irradiation.

dermal vasculature = test: Exclusion of systemic dye from rat skin (colorimeter), Example 18; assay type: in vivo; settings: 300 mM in 50:30:20 vehicle, 30 min time point
Experimental: 400 μl of a black dye solution was injected into each test rat as an i.p. bolus at 10 min after topical treatment with either 300 mM norepinephrine or vehicle alone. Colorimeter measurements of skin color in patches were made and the progression was recorded from 0 through 30 min. The change in colorimeter units between the 0 min reading and readings at indicated time points are plotted in FIG. 15. Colorimeter measurements of skin color were made using a CR-400 colorimeter (Minolta Corp.).

adrenergic receptor = settings: cited from earlier work
[9] = Dissolution and 24 hr solution status of vasoconstrictor salts in ethanol:PG:water diluents, Example 6; assay type: physicochemical; settings: at the concentrations required to induce an acceptable blanch response
Experimental: Aliquots of each vasoconstrictor salt were weighed into glass test tubes. The volume of liquid necessary to achieve the indicated final drug concentration was then added.
(§1) The approximate amount of heat required to dissolve the vasoconstrictor salt in each diluent is indicated. Once diluted, samples were sealed and held at room temperature (22° C.) for 24 hours and then at 4° C. for 24 hours. Skin blanch induced by the topical formulation was assessed by applying freshly made, clear formulation to human skin shortly after initial mixing. Drug solutions were monitored for the appearance of precipitated material over a 48 hour observation period.

human skin [10] = test: Human skin blanch 20 min after topical application, Example 6; assay type: in vivo; settings: applied to unbroken human skin
Experimental: as §1

[11] = test system: radiation-induced oral mucositis; test: Radiation-induced oral mucositis in hamster cheek pouch, Example 16; settings: hamster cheek pouch

SMILES: O=P1(N(CCCl)CCCl)NCCCO1 (stereo not drawn) [Cytoxan, cyclophosphamide]
- coat on day 20 (coat density; 20 μg/gm b.w. and lower doses i.p.): full coats
- coat on day 20 (coat density; 30 μg/gm b.w. and higher doses i.p.): nude
- clearance half-life [1]: about one

SMILES: CCN(CC)c1ccc2nc3c4ccccc4c(=O)cc-3oc2c1 [Nile Red]
- skin penetration (rat skin): penetrates both the stratum corneum and underlying epidermis

SMILES: CNC[C@H](O)c1ccc(O)c(O)c1 [epinephrine, epinephrine-HCl]
- Alopecia Score (% Normal Coat Density in Topical Treatment Area) ([2]; 20 mM, vehicle 50:25:25, Irradiation 7.5 Gy whole-body): 6%
- Alopecia Score (% Normal Coat Density in Topical Treatment Area) ([2]; 100 mM, vehicle 50:25:25, Irradiation 7.5 Gy whole-body): 33%
- Alopecia Score (% Normal Coat Density in Topical Treatment Area) ([2]; 500 mM, vehicle 50:25:25, Irradiation 7.5 Gy whole-body): 45%
- Alopecia Score (% Normal Coat Density in Topical Treatment Area) ([2]; 1000 mM, vehicle 0:100:0, Irradiation 7.5 Gy whole-body): 95%
- Alopecia Score (% Normal Coat Density in Topical Treatment Area) ([2]; 1000 mM, vehicle 25:30:45, Cytoxan 32 μ/gm b.w. i.p.): 40%
- Alopecia Score (% Normal Coat Density in Topical Treatment Area) ([2]; 1000 mM, vehicle 25:30:45 ethanol:propylene glycol:water, alopecia-inducing agent None): 100%
- Alopecia Score (% Normal Coat Density in Topical Treatment Area) ([2]; 1000 mM, vehicle 50:25:25, Irradiation 7.5 Gy whole-body): 94%
- Muscositis Severity Score ([3]; 0.05 mM, vehicle 5:5:3:87 ethanol:propylene glycol:HPMC:PBS, irradiation 20 min, Experiment C): 7.5
- Muscositis Severity Score ([3]; 0.10 mM, vehicle 5:5:3:87, irradiation 20 min, Experiment C): 5.0
- Muscositis Severity Score ([3]; 0.20 mM, vehicle 5:5:3:87, irradiation 20 min, Experiment C): 3.0
- Muscositis Severity Score ([3]; 0.40 mM, vehicle 5:5:3:87, irradiation 20 min, Experiment C): 0
- Muscositis Severity Score ([3]; 13.5 mM epinephrine + 12.3 mM epinephrine, vehicle 0:5:3:92, irradiation 24 min, Experiment B): 11.7 ± 0.7
- Muscositis Severity Score ([3]; 100.00 mM, vehicle 5:0:1:94, irradiation 24 min, Experiment A): 14.5 ± 2.4
- Muscositis Severity Score ([3]; 500.00 mM, vehicle 5:0:1:94, irradiation 24 min, Experiment A): 9.0
- lowest topical concentration with discernible radioprotection of a mucosal site ([3]; hamster cheek pouch): 50 µM
- appearance of cheek pouch (blanch) (cheek pouch oral mucosa): white and translucent
- Skin Blanch Response (human skin [4]; 2 mM in 50:25:25 ethanol:propylene glycol:water, 45 min): 10%
- Skin Blanch Response (human skin [4]; 2 mM in 50:25:25 ethanol:propylene glycol:water, 60 min): 40%
- Skin Blanch Response (human skin [4]; 2 mM in 50:25:25 ethanol:propylene glycol:water, 150 min): 75%
- Skin Blanch Response (human skin [4]; 10 mM in 50:25:25 ethanol:propylene glycol:water, 45 min): 40%
- Skin Blanch Response (human skin [4]; 10 mM in 50:25:25 ethanol:propylene glycol:water, 60 min): 60%
- Skin Blanch Response (human skin [4]; 10 mM in 50:25:25 ethanol:propylene glycol:water, 150 min): 90%
- Skin Blanch Response (human skin [4]; 50 mM in 50:25:25 ethanol:propylene glycol:water, 45 min): 30%
- Skin Blanch Response (human skin [4]; 50 mM in 50:25:25 ethanol:propylene glycol:water, 60 min): 50%
- Skin Blanch Response (human skin [4]; 50 mM in 50:25:25 ethanol:propylene glycol:water, 150 min): 85%
- Skin Blanch Response (human skin [4]; 0.1% (4.55 mM) in water, 45 min): 0%
- Skin Blanch Response (human skin [4]; 0.1% (4.55 mM) in water, 60 min): 0%
- Skin Blanch Response (human skin [4]; 0.1% (4.55 mM) in water, 150 min): 0%
- Skin Blanch Response (human skin [4]; 0.1% (4.55 mM) in water, 180 min): 0%
- blanching of the skin (human skin [4]; 0.1% aqueous solution): no detectable blanching
- Skin Blanch Response (human skin [4]; 100 mM in 50:25:25 ethanol:propylene glycol:water, 45 min): 85%
- Skin Blanch Response (human skin [4]; 100 mM in 50:25:25 ethanol:propylene glycol:water, 60 min): 90%
- Skin Blanch Response (human skin [4]; 100 mM in 50:25:25 ethanol:propylene glycol:water, 150 min): 90%
- Skin Blanch Response (human skin [4]; 1000 mM in 50:25:25 ethanol:propylene glycol:water, 45 min): 85%
- Skin Blanch Response (human skin [4]; 1000 mM in 50:25:25 ethanol:propylene glycol:water, 60 min): 90%
- Skin Blanch Response (human skin [4]; 1000 mM in 50:25:25 ethanol:propylene glycol:water, 150 min): 95%
- Radiation Dermatitis Score (% of Irradiated 4.5 cm^2 Area Free of Scab material) ([5]; 20 mM, vehicle 50:30:20, four topical applications): 32%
- Radiation Dermatitis Score (% of Irradiated 4.5 cm^2 Area Free of Scab material) ([5]; 300 mM, vehicle 25:30:45, four topical applications): 95%
- Radiation Dermatitis Score (% of Irradiated 4.5 cm^2 Area Free of Scab material) ([5]; 1000 mM, vehicle 50:30:20, four topical applications): 100%
- concentration applied to skin required to confer protection against radiation dermatitis ([5]; rat skin): > 20 mM
- coat protection on day 20 [6]: partial coat protection

SMILES: NC[C@H](O)c1ccc(O)c(O)c1 [norepinephrine]
- solubility (no crystals over 24 hr room temperature and 24 hr 4° C.) ([7]; 55:20:25 ethanol:PG:water): not soluble
- solubility (no crystals over 24 hr room temperature and 24 hr 4° C.) ([7]; around 50:30:20 ethanol:PG:water): areas of solubility
- solubility (no crystals over 24 hr room temperature and 24 hr 4° C.) ([7]; around 60:10:30 ethanol:PG:water): areas of solubility
- protection against Grade 2 dermatitis [8]: complete protection
- reduction of delivery of systemic, blood-borne dye to treated skin (dermal vasculature): 39%
- agonism of the β2 receptor (adrenergic receptor): not an agonist of the β2 receptor
- binding affinity (potency) for the α1 adrenergic receptor (adrenergic receptor): slightly better than for epinephrine

SMILES: CNC[C@H](O)c1cccc(O)c1 [phenylephrine, phenylephrine-HCl]
- Muscositis Severity Score ([3]; 12.3 mM, vehicle 0:5:3:92, irradiation 24 min, Experiment B): 5.0 ± 0.1
- solubility in topical vehicles [9]: not stably soluble
- potency to induce skin blanch (human skin [10]): lacks the potency to adequately induce skin blanch
- appearance of cheek pouch (blanch) (cheek pouch oral mucosa): white and translucent
- Skin Blanch Response (human skin [4]; 30 mM in 60:30:10 vehicle, 180 min): 0%
- Skin Blanch Response (human skin [4]; 150 mM in 60:30:10 vehicle, 180 min): 35%
- Skin Blanch Response (human skin [4]; 0.25% (12.3 mM) in water, 180 min): 0%
- blanching of the skin (human skin [4]; 0.25% aqueous solution): no detectable blanching
- Skin Blanch Response (human skin [4]; 300 mM in 60:30:10 vehicle, 180 min): 50%
- Skin Blanch Response (human skin [4]; 1000 mM in 60:30:10 vehicle, 180 min): 60%
- Skin Blanch Response (human skin [4]; 2500 mM in 60:30:10 vehicle, 180 min): 70%
- protection against γ radiation-induced mucositis ([11]; 10 mM topical): completely protective; also recorded: completely preventing
- mucosal pathology ([11]; large excess doses combined with 24 min of irradiation (40 Gy)): severe mucosal pathology
- mucosal pathology ([11]; large excess doses without irradiation): no discernible mucosal pathology
